# Several values for one entry are separate records, joined by “and”; a condition that tells them apart may be missing. Identical values can stand only once. Toxic doses and inconclusive results are not listed.
# Test system: B6C3F1 mice, B16 melanoma ip, median survival T/C
# Test: NCI In Vivo Anticancer Drug Screen. Data for tumor model B16 Melanoma (intraperitoneal) in B6C3F1 mice
# Conditions: endpoint: median survival time, higher = longer survival
# Method in brief: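 Tumor-bearing mice received test compound; a separate group got vehicle only. Survival was then compared, with results reported as treated over control.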
# [1] = dose: 12.5 mg/kg/injection, schedule: Q01DX009 (ip), vehicle: saline with Tween-80
# [2] = dose: 25.0 mg/kg/injection, schedule: Q01DX009 (ip), vehicle: saline with Tween-80
# [3] = dose: 50.0 mg/kg/injection, schedule: Q01DX009 (ip), vehicle: saline with Tween-80
# [4] = dose: 100.0 mg/kg/injection, schedule: Q01DX009 (ip), vehicle: saline with Tween-80
# [5] = dose: 200.0 mg/kg/injection, schedule: Q01DX009 (ip), vehicle: saline with Tween-80
# [6] = dose: 400.0 mg/kg/injection, schedule: Q01DX009 (ip), vehicle: saline with Tween-80
# [7] = dose: 6.25 mg/kg/injection, schedule: Q01DX009 (ip), vehicle: saline
# [8] = dose: 12.5 mg/kg/injection, schedule: Q01DX009 (ip), vehicle: saline
# [9] = dose: 25.0 mg/kg/injection, schedule: Q01DX009 (ip), vehicle: Klucel (hydroxypropylcellulose) (HPC)
# [10] = dose: 25.0 mg/kg/injection, schedule: Q01DX009 (ip), vehicle: saline
# [11] = dose: 50.0 mg/kg/injection, schedule: Q01DX009 (ip), vehicle: saline
# [12] = dose: 100.0 mg/kg/injection, schedule: Q01DX009 (ip), vehicle: saline
# [13] = dose: 50.0 mg/kg/injection, schedule: Q01DX009 (ip), vehicle: Klucel (hydroxypropylcellulose) (HPC)
# [14] = dose: 100.0 mg/kg/injection, schedule: Q01DX009 (ip), vehicle: Klucel (hydroxypropylcellulose) (HPC)
# [15] = dose: 200.0 mg/kg/injection, schedule: Q01DX009 (ip), vehicle: Klucel (hydroxypropylcellulose) (HPC)
# [16] = dose: 3.12 mg/kg/injection, schedule: Q01DX009 (ip), vehicle: saline
structure (smiles),measurement,setting,value
C=CCNc1nc2c(s1)CCc1cc(OC)c(OC)cc1-2,T/C,[1],103 % of control
same,T/C,[2],116 % of control
same,T/C,[3],107 % of control
same,T/C,[4],100 % of control
same,T/C,[5],103 % of control
same,T/C,[6],103 % of control
NC(=O)Oc1cc(OC(N)=O)cc(N(CCCl)CCCl)c1,T/C,"dose: 3.12 mg/kg/injection, schedule: Q01DX009 (ip), vehicle: Klucel (hydroxypropylcellulose) (HPC)",115 % of control
same,T/C,"dose: 6.25 mg/kg/injection, schedule: Q01DX009 (ip), vehicle: Klucel (hydroxypropylcellulose) (HPC)",107 % of control
same,T/C,[7],91 % of control
same,T/C,[8],96 % of control
same,T/C,[9],170 % of control
same,T/C,[10],104 % of control
same,T/C,[11],104 % of control
same,T/C,[12],102 % of control
CNC(=S)C#N,T/C,"dose: 12.5 mg/kg/injection, schedule: Q01DX009 (ip), vehicle: saline + Tween-80 + alcohol",119 % of control
same,T/C,"dose: 25.0 mg/kg/injection, schedule: Q01DX009 (ip), vehicle: saline + Tween-80 + alcohol",86 % of control
CCCCNC(C)(C)COC(=O)/C=C/c1ccc(OCCCC)cc1,T/C,[1],98 % of control
same,T/C,[2],93 % of control
same,T/C,[3],90 % of control
COc1ccc(-c2c3c(cc4cc5c(cc24)OCO5)C(=O)OC3)cc1OC,T/C,"dose: 6.0 mg/kg/injection, schedule: Q01DX009 (ip), vehicle: Klucel (hydroxypropylcellulose) (HPC)",100 % of control
same,T/C,"dose: 12.0 mg/kg/injection, schedule: Q01DX009 (ip), vehicle: Klucel (hydroxypropylcellulose) (HPC)",117 % of control and 105 % of control
same,T/C,"dose: 24.0 mg/kg/injection, schedule: Q01DX009 (ip), vehicle: Klucel (hydroxypropylcellulose) (HPC)",88 % of control and 99 % of control
CC1CCC(n2cnc3c(Cl)ncnc32)O1 (centres undefined),T/C,"dose: 12.5 mg/kg/injection, schedule: Q01DX009 (ip), vehicle: Klucel (hydroxypropylcellulose) (HPC)",97 % of control and 104 % of control
same,T/C,[9],92 % of control and 104 % of control
same,T/C,[13],92 % of control and 98 % of control
same,T/C,[14],97 % of control and 104 % of control
same,T/C,[15],92 % of control and 93 % of control
[Cl][Hg][Cl],T/C,"dose: 0.05 mg/kg/injection, schedule: Q01DX009 (ip), vehicle: saline",105 % of control
same,T/C,"dose: 0.06 mg/kg/injection, schedule: Q01DX009 (ip), vehicle: saline",96 % of control
same,T/C,"dose: 0.1 mg/kg/injection, schedule: Q01DX009 (ip), vehicle: saline",97 % of control
same,T/C,"dose: 0.12 mg/kg/injection, schedule: Q01DX009 (ip), vehicle: saline",104 % of control
same,T/C,"dose: 0.2 mg/kg/injection, schedule: Q01DX009 (ip), vehicle: saline",100 % of control
same,T/C,"dose: 0.25 mg/kg/injection, schedule: Q01DX009 (ip), vehicle: saline",104 % of control
same,T/C,"dose: 0.4 mg/kg/injection, schedule: Q01DX009 (ip), vehicle: saline",102 % of control
same,T/C,"dose: 0.5 mg/kg/injection, schedule: Q01DX009 (ip), vehicle: saline",86 % of control
same,T/C,"dose: 0.8 mg/kg/injection, schedule: Q01DX009 (ip), vehicle: saline",86 % of control
CC(=O)NCCSC(=O)C(=O)SCCNC(C)=O,T/C,[3],88 % of control
same,T/C,[4],102 % of control
same,T/C,[5],87 % of control
NC(CCCCNC=O)C(=O)O (centres undefined),T/C,[12],110 % of control
same,T/C,"dose: 200.0 mg/kg/injection, schedule: Q01DX009 (ip), vehicle: saline",121 % of control
same,T/C,"dose: 400.0 mg/kg/injection, schedule: Q01DX009 (ip), vehicle: saline",116 % of control
O=C(NC(CSSCC(NC(=O)OCc1ccccc1)C(=O)O)C(=O)O)OCc1ccccc1 (centres undefined),T/C,[9],104 % of control
same,T/C,[13],94 % of control
same,T/C,[14],102 % of control
same,T/C,[15],88 % of control
Cc1oc2c(C)c3oc(=O)cc(C)c3cc2c1CCl,T/C,[1],91 % of control and 97 % of control
same,T/C,[2],87 % of control and 88 % of control (2×)
same,T/C,[3],102 % of control
CCC(C)n1ncc2c(N(C)C)ncnc21 (centres undefined),T/C,[16],98 % of control
same,T/C,[7],95 % of control
same,T/C,[8],95 % of control
Clc1ncnc2c1ncn2C1CCCO1 (centres undefined),T/C,[10],93 % of control
same,T/C,[11],99 % of control
same,T/C,[12],88 % of control and 94 % of control
COc1cccc2c1C(=O)c1c(O)c3c(c(O)c1C2=O)CC(O)(C(=O)CO)CC3OC1CC(N)C(O)C(C)O1 (centres undefined),T/C,"dose: 4.1 mg/kg/injection, schedule: Q01DX001 (ip), vehicle: other",108 % of control
same,T/C,"dose: 4.5 mg/kg/injection, schedule: Q01DX009 (ip), vehicle: water",209 % of control
same,T/C,"dose: 6.9 mg/kg/injection, schedule: Q01DX001 (ip), vehicle: other",114 % of control
same,T/C,"dose: 9.0 mg/kg/injection, schedule: Q01DX009 (ip), vehicle: water",219 % of control
same,T/C,"dose: 11.5 mg/kg/injection, schedule: Q01DX001 (ip), vehicle: other",118 % of control
same,T/C,"dose: 18.0 mg/kg/injection, schedule: Q01DX009 (ip), vehicle: water",234 % of control
same,T/C,"dose: 19.2 mg/kg/injection, schedule: Q01DX001 (ip), vehicle: other",123 % of control
same,T/C,"dose: 36.0 mg/kg/injection, schedule: Q01DX009 (ip), vehicle: water",156 % of control
Clc1ccccc1C(Nc1cnccn1)Nc1cnccn1,T/C,[2],95 % of control and 101 % of control
same,T/C,[3],98 % of control and 107 % of control
same,T/C,[4],118 % of control and 108 % of control
same,T/C,[5],116 % of control
CN(C)N=Nc1ccc2c(c1)N(C)c1ccc(Cl)cc1S2,T/C,"dose: 6.25 mg/kg/injection, schedule: Q01DX009 (ip), vehicle: other",99 % of control
same,T/C,"dose: 12.5 mg/kg/injection, schedule: Q01DX009 (ip), vehicle: other",109 % of control
same,T/C,"dose: 25.0 mg/kg/injection, schedule: Q01DX009 (ip), vehicle: other",114 % of control
same,T/C,"dose: 50.0 mg/kg/injection, schedule: Q01DX009 (ip), vehicle: other",110 % of control
same,T/C,"dose: 100.0 mg/kg/injection, schedule: Q01DX009 (ip), vehicle: other",114 % of control
OC1(CSc2ccccc2)CCCCC1,T/C,[1],90 % of control and 105 % of control
same,T/C,[2],93 % of control and 102 % of control
same,T/C,[3],117 % of control and 95 % of control
same,T/C,[4],93 % of control and 102 % of control
same,T/C,[5],105 % of control
same,T/C,[6],89 % of control
O=CC(O)C(O)C(O)C(O)CO (centres undefined),T/C,"dose: 75.0 mg/kg/injection, schedule: Q01DX009 (ip), vehicle: saline",95 % of control
same,T/C,"dose: 150.0 mg/kg/injection, schedule: Q01DX009 (ip), vehicle: saline",102 % of control
same,T/C,"dose: 300.0 mg/kg/injection, schedule: Q01DX009 (ip), vehicle: saline",103 % of control
same,T/C,"dose: 600.0 mg/kg/injection, schedule: Q01DX009 (ip), vehicle: saline",87 % of control
same,T/C,"dose: 1200.0 mg/kg/injection, schedule: Q01DX009 (ip), vehicle: saline",96 % of control
CC[N](CC)[Ge]([CH2]C)[CH2]C.CC[N](CC)[Ge]([CH2]C)[CH2]C,T/C,"dose: 1.56 mg/kg/injection, schedule: Q01DX009 (ip), vehicle: saline",106 % of control
same,T/C,[16],103 % of control
same,T/C,[7],103 % of control
same,T/C,[8],107 % of control
same,T/C,[10],108 % of control
CCOc1ccccc1C(=O)Nc1ccc(Br)cc1,T/C,[13],117 % of control
same,T/C,[15],117 % of control
CC(=O)Nc1ccc(C(O)C2=CC(=O)c3ccccc3C2=O)cc1 (centres undefined),T/C,[10],102 % of control
same,T/C,[11],88 % of control
same,T/C,[12],94 % of control
C/C=C/c1cc2n(c1)C(=O)c1cc(OC3OC(C)C(NC)C(C)(O)C3O)c(C)c(O)c1NC2O (centres undefined),T/C,"dose: 0.25 micrograms/kg/injection, schedule: Q01DX009 (ip), vehicle: saline",106 % of control
same,T/C,"dose: 2.0 micrograms/kg/injection, schedule: Q04DX003 (ip), vehicle: DMSO",114 % of control
CC(=O)OC1=C(Br)CCc2ccccc21,T/C,"dose: 3.12 mg/kg/injection, schedule: Q01DX009 (ip), vehicle: DMSO",88 % of control
same,T/C,"dose: 6.25 mg/kg/injection, schedule: Q01DX009 (ip), vehicle: DMSO",87 % of control
same,T/C,"dose: 12.5 mg/kg/injection, schedule: Q01DX009 (ip), vehicle: DMSO",88 % of control
same,T/C,"dose: 25.0 mg/kg/injection, schedule: Q01DX009 (ip), vehicle: DMSO",91 % of control
